Assay results: patent US20250244310A1, “METHODS OF IDENTIFICATION AND TARGETING OF MASTER KINASES IN CANCER” (The Trustees of Columbia University in the City of New York, priority 2022, published 2025)

Legend:
GPM PDO cells = assay: Colony-forming (clonogenic) assay of GPM PDO cells treated with BJE6-106; format: cell-based, human; settings: FIG. 5c
Description: Cell growth and clonogenic assay. Time course analysis of the cellular growth of shPRKCD infected PDOs or the empty vector was performed by plating 4,500 cells per well in 96-well plates. Viability was determined using CellTiterGlo assay reagent (Promega, G7570) and the GloMax-Multi+ Microplate Multimode Reader (Promega). Data are mean±s.d. of five replicates, and experiments were repeated twice. For clonogenic assay of PDO cells treated with increasing concentration of BJE6-106, 1,500 cells were plated in 6-well plates in triplicate. Cells were fixed in methanol and stained with crystal violet 2 weeks later. Colonies with more than 50 cells were scored. Data are mean±s.d. of triplicate observations from one representative experiment. Experiments were repeated twice.

[1] = system: AKT-ser-473 and STAT3-tyr-705 phosphorylation; assay: Western blot of GPM PDO cells treated with BJE6-106; format: cell-based, human; settings: BJE6-106 at 50 µM, time course, FIG. 5d
Text: (§1) V9131), and j-actin 1:10,000 (Sigma, no. A5441).

BRCA cell lines = assay: DepMap menadione survival ratio, BRCA cell lines; format: cell-based; settings: 26 BRCA cell lines from DepMap; p=0.008
Text: (§2) We used the BRCA and LUSC cell lines cohorts from DepMap for which both RNA-Seq expression and menadione survival ratio from PRISM Repurposing Primary Screen were available (n=26 for BRCA and n=71 for LUSC)^94. For each cell line, we used the transcriptomic profile to calculated the NES of the four functional GBM subtypes by MWW-GST using gene signatures obtained from the analysis of TCGA samples. Each cell line was classified according the highest subtype activity (NES). We assessed the difference in survival ratio between the mitochondrial cell lines and the others using two-sided Student t-test, unequal variance.

LUSC cell lines = assay: DepMap menadione survival ratio, LUSC cell lines; format: cell-based; settings: 71 LUSC cell lines from DepMap; p=0.076
Text: as §2

PPR GBM PDOs = assay: Irradiation-drug combination viability, PPR PDOs; format: cell-based, human
Description: (§3) Cells were cultured in DMEM/F12 medium supplemented with N-2, B-27, EGF and FGF. Cells were plated in 130 μl in opaque white 96-well plates. Twenty-four hrs later cells were treated with 3-fold serial dilutions of compounds as indicated in six replicates for 72 hrs. Viability was determined using CellTiterGlo assay reagent (Promega, G7570) and GloMax-Multi+ Microplate Multimode Reader (Promega). For the irradiation-drug combination treatment, PDOs cells were plated in 96 well plates 24 hrs before treatment. Cells were treated with 3-fold serial dilutions of M3814 two hrs before exposure to various irradiation doses (2, 4, 8 Gy at 0.7 Gy/min) from a ^137Cs source (GammaCell 40 irradiator, Teratronics). Mock irradiated cells were cultured in parallel. Viability was determined 96 hrs later using CellTiterGlo assay reagent (Promega, G7570) and GloMax-Multi+ Microplate Multimode Reader (Promega). Data are mean±s.d. of the viability ratio from 6 observations in 8 PPR and 8 GPM PDOs. Experiments were performed at least twice with similar results. Clonogenic assays for the evaluation of irradiation-drug combination were performed in 96 well plates. Each experimental point was plated in 3 independent 96 well plates. The number of wells containing PDO spheres were scored and the value of control untreated cell was considered 100% clonogenicity for the specific PDO. […]

GPM PDOs = assay: Irradiation-drug combination viability, GPM PDOs; format: cell-based, human; settings: eight GPM PDOs; FIG. 5k
Description: as §3

[2] = system: phosphorylation of serine-343 of NBS1 and serine-824 of KAP1; assay: Western blot of PPR PDO cells, irradiation plus nedisertib: double-strand break markers; format: cell-based, human; settings: PPR PDOs, until 24 hours after irradiation, FIG. 5l
Text: as §1

γH2AX foci = assay: Immunofluorescence analysis of γH2AX foci in PPR PDO cells; format: cell-based, human; settings: IR 4 Gy plus nedisertib 556 nM, 0-24 hr, FIG. 5m
Description: Cells were fixed with 4% paraformaldehyde, permeabilized with cold methanol for 90 seconds at 4° C., and blocked with 5% BSA, 0.05% Triton X-100 in PBS for 30 minutes. Cells were exposed to primary antibody phospho-H2AX 1:500 (S139, CST, #2577) for one hour at room temperature followed by Cy3-conjugated anti rabbit (Invitrogen, A10520) for one hour at room temperature. Nuclei were stained with DAPI (Sigma). Images were acquired using a Nikon Ti Eclipse inverted microscope for spinning-disk confocal microscopy equipped with a Plan Apochromat 60× oil/1.4 NA DIC objective. Counting of TH2AX foci in individual nuclei were analyzed by ImageJ (NIH, Bethesda, USA) by specific in-built find Maxima>Prominence>Point Selection plug-in. Minimum 50 nuclei in at least ten representative images were included for analysis in each treatment group.

PPR and GPM PDOs = assay: Clonogenic assay for irradiation-drug combination; format: cell-based, human; settings: two PPR and GPM PDOs, irradiation plus nedisertib; FIG. 15b
Description: as §3

[3] = system: serine-2056 phosphorylation of DNA-PKcs; settings: irradiated PPR PDO cells; FIG. 5l
Description: Cells were lysed in RIPA buffer (50 mM Tris-HCl pH 7.5, 150 mM NaCl, 1 mM EDTA, 1% NP40, 0.5% sodium dexoycholate, 0.1% sodium dodecyl sulfate, 1.5 mM Na3VO4, 50 mM sodiumfluoride, 10 mM sodium pyrophosphate, 10 mM β-glycerolphosphate and EDTA-free protease inhibitor cocktail; Roche). Lysates briefly sonicated, cleared by centrifugation at 15,000 r.p.m. for 15 min at 4° C., separated by SDS-polyacrylamide gel electrophoresis and transferred to polyvinylidene difluoride membrane. Membranes were blocked in Tris-buffered saline with 5% nonfat milk and 0.1% Tween 20 and probed with primary antibodies overnight at 4° C. Antibodies0 and concentrations were as follows: p-DNA-PK 1:1,000 (Ser2056, CST, #68716), DNA-PK 1:1,000 (CST, #38168), p-NBS1 1:1,000 (Ser343, CST, #3001), NBS1 1:1,000 (CST, #81234), p-KAP1 1:1,000 (Ser824, Abcam, ab133440), KAP1 1:1,000 (Abcam, ab109287), p-CHK1 (Ser317, CST, #12302), CHK1 (CST, #2360), p-PKCδ 1:1,000 (Tyr311, CST, #20555), PKCδ 1:1,000 (CST, #96165), p-STAT3 1:1,000 (Tyr705, CST, #91455), STAT3 1:1,000 (CST, #49045) p-AKT 1:1,000 (Ser473, CST, #40605), p-AKT 1:1,000 (Thr308, CST, #13038S), AKT 1:1,000 (CST, #49615), p-ERK1/2 1:1,000 (Thr202/Tyr204, CST, #4370), ERK1/2 1:1,000 (CST, #9102), GAPDH 1:10,000 (Abcam, ab9484), Vinculin 1:10,000 (Sigma, no. V9131), and j-actin 1:10,000 (Sigma, no. A5441). […]

[4] = system: phosphorylation of PKCδ on tyr-311; assay: Western blot of GPM PDOs incubated with IGF-I, IGF-II or insulin; format: cell-based, human; settings: IGF-I 10 ng/ml, IGF-II 10 ng/ml, insulin 100 ng/ml, FIGS. 14b, c
Text: as §1

## CC1(C)C=Cc2cc(CCn3c4ccccc4c4ccccc43)cc(C=O)c2O1 [BJE-10676]
GPM PDO cells
  colony formation: dose-dependent inhibition of colony formation
[1]
  AKT-ser-473 and STAT3-tyr-705 phosphorylation: time-dependent decrease of AKT-ser-473 and STAT3-tyr-705 phosphorylation

## CC1=CC(=O)c2ccccc2C1=O [menadione]
BRCA cell lines
  menadione survival ratio, difference between mitochondrial cell lines versus the others, log2(FC): −1.31
LUSC cell lines
  menadione survival ratio, difference between mitochondrial cell lines versus the others, log2(FC): −0.63

## COc1ccc([C@@H](O)c2cc(-c3ncnc4cc(N5CCOCC5)ccc34)c(F)cc2Cl)nn1 [nedisertib]
PPR GBM PDOs; eight PPR GBM PDOs, FIG. 5k
  tumor cell viability, nedisertib-IR combination compared to each individual treatment: marked reduction of tumor cell viability
PPR GBM PDOs; six of the eight PPR PDOs, even at the lowest concentrations of nedisertib
  radiation dose enhancement factor (DEF): > 2
GPM PDOs
  effect of nedisertib-IR combination on viability: virtually ineffective
[2]
  phosphorylation of serine-343 of NBS1 and serine-824 of KAP1 (unrepaired DNA damage): sustained phosphorylation of serine-343 of NBS1 and serine-824 of KAP1
γH2AX foci
  number of γH2AX foci: remained elevated throughout the course of the experiment
PPR and GPM PDOs
  radiosensitivity by clonogenic assay: confirmed these results
[3]
  serine-2056 phosphorylation of DNA-PKcs: inhibited serine-2056 phosphorylation of DNA-PKcs

## IGF1: growth factor used to stimulate GPM PDOs (10 ng/ml)
[4]
  phosphorylation of PKCδ on tyr-311: induced phosphorylation of PKCδ on tyr-311

## IGF2: growth factor used to stimulate GPM PDOs (10 ng/ml)
[4]
  phosphorylation of PKCδ on tyr-311: induced phosphorylation of PKCδ on tyr-311

## insulin: hormone used to stimulate GPM PDOs (100 ng/ml)
[4]
  phosphorylation of PKCδ on tyr-311: induced phosphorylation of PKCδ on tyr-311
